± gives the expanded uncertainty stated by the source.

The conditions of this data set: Liquid; for mass density: 303.15 K, 95.3 kPa, Pycnometric method.

On to `Brc1ccccc1` [bromobenzene], for which the mass density (as a rule, mass per unit of volume) is 1481.48 ± 1.7 kg/m3. Also, the vapor or sublimation pressure – broadly, the pressure of vapour in equilibrium with the condensed phase – (426.85 K) turned out to be 95.3 ± 1.9 kPa.

As for `Clc1ccccc1` [chlorobenzene], the mass density was 1095.52 ± 1.1 kg/m3. The “vapor or sublimation pressure” value (402.35 K) amounted to 95.3 ± 1.9 kPa.

As for `C[S+](C)[O-]` [dimethyl sulfoxide], the mass density is recorded as 1092.4 ± 1.1 kg/m3. Besides, the “vapor or sublimation pressure” value (460.95 K) is given as 95.3 ± 1.9 kPa.

On to `CCc1ccccc1` [ethylbenzene], for which the mass density came to 858.2 ± 0.86 kg/m3. In addition, the “vapor or sublimation pressure” value (406.95 K) stood at 95.3 ± 1.9 kPa.

On to `O=[N+]([O-])c1ccccc1` [nitrobenzene], for which the mass density is 1193.4 ± 1.3 kg/m3. Moreover, under “483.05 K”, the “vapor or sublimation pressure” value stood at 95.3 ± 1.9 kPa.

Consider `Cc1ccccc1` [toluene], for which the mass density turned out to be 857.66 ± 0.86 kg/m3. Also, the “vapor or sublimation pressure” value (381.65 K) is recorded as 95.3 ± 1.9 kPa.

Source of the values: the NIST ThermoML archive (doi:10.1016/j.fluid.2007.08.001).
